One experiment relates to Ovalbumine-induced Asthma Bronchiale of Mice. The experiment is described as follows: Ovalbumine-induced asthma bronchiale of mice, pulmonal function (EF50). The format is in vivo, Balb/c Mice. Conditions: 0.1 mg (of each) inhibitor i.p. on days 28-35; FIG. 3A. The source says:
Therapeutic Effect of the Combined Inhibition of Dipeptidyl Peptidase IV and of Enzymes Having an Analogous Effect as well as of the Alanyl Aminopeptidase and of Enzymes Having an Analogous Effect on the Ovalbumine-induced Asthma Bronchiale of Mice (Animal Model of Human Asthma Bronchiale).
Female Balb/c Mice were sensitized for the antigen ovalbumine capable of inducing asthma bronchiale by an intreperitoneal administration of […] ovalbumine on the days 0, 14 and 21. On day 27/28, the animals received a boostering dose of ovalbumine by inhalation [vD3]. After an intreperitoneal administration of the peptidase inhibitors on the days 28-35, there was effected an intranasal ovalbumine challenge on day 35, as well as a check of the allergic premature reaction via the pulmonal function. There were measured: the average expiratory flux (EF50), the tidal volume, the respiration rate and the minute volume as well as the number of eosinophilic granulocytes in the bronchoalveolar lavage. 8 to 10 animals were used per experimental group. By way of example, in FIG. 3A, there is summarized the effect of the peptidase inhibitors on the reduction of the EF50 value. […] Group E represents animals which were not sensitized by OVA, but which were subjected—beyond that—all procedures to which the animal groups A to D were subjected.
`CCCCC[C@H](CC(=O)NO)C(=O)N[C@H](C(=O)N1CCC[C@H]1CO)C(C)C` [Actinonine]: the “therapeutic effect on the reduction of the EF50 value” was “showed a therapeutic effect”.

As for `N[C@@H](CCCCNC(=O)OCc1ccc([N+](=O)[O-])cc1)C(=O)N1CCCC1` [Lys[Z(NO2)] pyrrolidide], the “therapeutic effect on the reduction of the EF50 value” is “showed a therapeutic effect”.

A further experiment has as its system Dextran Sulfate-induced Colitis of Mice. As to the kind of experiment: Dextran sulfate-induced colitis of mice, disease score. The format is in vivo, Balb/c mice. Conditions: 10 pg single inhibitor i.p. on three successive days from day 5; day 7; slight, but insignificant.
As to `CCCCC[C@H](CC(=O)NO)C(=O)N[C@H](C(=O)N1CCC[C@H]1CO)C(C)C` [Actinonine], the “reduction of the heaviness of the disease (score)” value is given as −16.5%.

The target in another experiment is dipeptidyl peptidase IV (Homo sapiens, UniProt P27487). As to the kind of experiment: biochemical. Conditions: values marked with "*" are ID50 values; read-out: IC50DPIV, values marked with "*" = ID50.
Chain of dipeptidyl peptidase IV (P27487 whole entry, species assumed): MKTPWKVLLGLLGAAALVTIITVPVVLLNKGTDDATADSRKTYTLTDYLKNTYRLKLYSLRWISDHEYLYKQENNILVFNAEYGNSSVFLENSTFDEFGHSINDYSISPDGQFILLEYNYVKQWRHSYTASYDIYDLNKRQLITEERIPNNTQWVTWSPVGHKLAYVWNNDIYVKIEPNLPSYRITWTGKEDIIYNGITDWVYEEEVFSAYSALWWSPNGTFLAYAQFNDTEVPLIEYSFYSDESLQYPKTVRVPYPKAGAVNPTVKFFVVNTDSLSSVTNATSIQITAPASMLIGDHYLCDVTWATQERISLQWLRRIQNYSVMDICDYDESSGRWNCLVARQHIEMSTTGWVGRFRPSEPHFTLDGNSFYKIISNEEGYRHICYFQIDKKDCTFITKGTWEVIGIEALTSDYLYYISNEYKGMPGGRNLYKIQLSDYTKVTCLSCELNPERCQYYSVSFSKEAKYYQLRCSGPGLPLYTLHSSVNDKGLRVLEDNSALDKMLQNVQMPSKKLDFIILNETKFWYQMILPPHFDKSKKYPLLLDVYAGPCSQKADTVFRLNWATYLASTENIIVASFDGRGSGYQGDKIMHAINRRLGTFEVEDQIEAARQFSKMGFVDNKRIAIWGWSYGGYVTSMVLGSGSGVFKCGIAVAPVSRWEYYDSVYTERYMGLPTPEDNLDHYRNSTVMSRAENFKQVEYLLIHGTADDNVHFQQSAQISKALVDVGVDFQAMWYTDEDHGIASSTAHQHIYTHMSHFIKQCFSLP
On to `Cn1c(=O)c2c(nc(NCC(O)CO)n2Cc2ccccc2Cl)n(C)c1=O` (stereo not drawn) [D12.040], for which the IC50 stood at 83.3 µM.

Consider `COC(=O)c1cccc(NC(=O)/C(=C\c2ccc3c(c2)OCO3)NC(=O)c2ccc(Br)o2)c1` [D12.043], for which the IC50 came out at 92.2 µM.

`COc1ccc(/C=C2\C(=O)N(c3ccccc3)C3=C2C(c2ccc(Br)cc2)N(c2ccccc2)C3=O)cc1` (stereo not drawn) [D12.047]: the IC50 was 198 µM.

For `CCCn1c(N2CCN(CC(=O)Nc3c(C(=O)OCC)[nH]c4ccc(F)cc34)CC2)nc2c1c(=O)[nH]c(=O)n2C` [D13.004], the IC50 was 69.8 µM.

Turning to `CCOC(=O)CC(N)c1ccc(OC)cc1` (stereo not drawn) [D13.006], the IC50 stood at 83.3 µM.

For `CN(C)c1ccc(C2C3C(=O)N(c4ccccc4)C(=O)C3ON2c2ccc(Cl)cc2)cc1` (stereo not drawn) [D13.007], the IC50 was 344 µM.

For the compound `CCC(O)(CC)C(=O)NNc1ccc(C)cc1C` [D14.001], the IC50 was found to be 1.2 µM.

With `O=C(Nc1cccc(/N=C/c2cc(/N=N\c3ccccc3Cl)ccc2O)c1)c1ccco1` [D14.002], the IC50 was 2.5 µM.

In the case of `CCC(O)(CC)C(=O)NN(C(=O)CNS(=O)(=O)c1ccc(C)cc1)c1ccccc1` [D14.007], the IC50 was 456 µM.

The experiment is the same for the next values; noted with them: values without "*" = IC-50; read-out: IC50DPIV.
Turning to `Cc1csc(/C(=N\OC(=O)c2ccco2)C(N)=O)n1` [D11.009], the IC50 is 32.8 µM.

For `CCc1c(C)[nH]c2c1/C(=N/OC(=O)C(C)C)CCC2` [D11.010], the IC50 was 43.8 µM.

For `COC(=O)O/N=C(/N)c1nonc1N` [D11.011], the IC50 came to 44.3 µM.

Regarding `Cn1c(=O)c2c(nc(NCCCCO)n2Cc2ccccc2Cl)n(C)c1=O` [D12.002], the IC50 came out at 16.2 µM.

Consider `CC1CCN(C(=O)/C(=C\c2ccco2)NC(=O)c2ccc(Cl)cc2)CC1` [D12.004], for which the IC50 is 18.5 µM.

In the case of `CN(C)c1ccc(C2C=C(Nc3ccccc3)C(=O)N2c2ccccc2)cc1` (stereo not drawn) [D12.006], the IC50 was 20.4 µM.

With `CCCn1c(N2CCN(CC(=O)c3c[nH]c4ccccc34)CC2)nc2c1c(=O)[nH]c(=O)n2C` [D12.012], the IC50 came to 30.8 µM.

For the compound `O=C(Nc1c[nH]c(=O)[nH]c1=O)c1ccc2c(c1)C(=O)N(c1ccc(C(=O)c3ccccc3)cc1)C2=O` [D12.016], the IC50 came to 38.2 µM.

`CCOC(=O)c1c(C)oc2c1c1c(c3ccccc32)OCN(C2CCS(=O)(=O)C2)C1` (stereo not drawn) [D12.017]: the IC50 worked out at 34.2 µM.

As to `Cc1ccc(C(=O)N/C(=C\c2ccco2)C(=O)N2CCOCC2)cc1C` [D12.025], the IC50 was 46.5 µM.

`CCCCOC(=O)c1cc(-c2ccc(/C=C3/C(=O)N(CC(C)O)C(=O)C(C#N)=C3C)o2)ccc1Cl` (stereo not drawn) [D12.027]: the IC50 was 49 µM.

As to `CC(=O)Oc1ccc2oc(=O)c3c(c2c1)CCCN3C(C)=O` [D12.029], the IC50 was 59.4 µM.

As for `CCOC(=O)c1n[nH]c2c1CN(c1ccc([N+](=O)[O-])cc1)C2=O` [D12.031], the IC50 is 54.5 µM.

Take `O=C(N/N=C/c1cc(Br)c(O)c(Br)c1O)/C(=C\c1ccc2c(c1)OCO2)NC(=O)c1ccccc1` [D12.032]: the IC50 is 60 µM.

In the case of `COC(=O)C1=CN(N(C(C)=O)C(C)=O)C(=O)CC1` [D12.033], the IC50 turned out to be 60.7 µM.

In the case of `CCCOC(=O)c1cc(-c2ccc(/C=C3\C(=O)NC(=O)C(C#N)=C3C)o2)ccc1Cl` [D12.034], the IC50 turned out to be 65.3 µM.

Regarding `Cc1ccc(C(=O)N/C(=C/c2ccco2)C(=O)N(C)C)cc1` [D12.038], the IC50 was 47.7 µM.

Turning to `Nc1nonc1-n1nnc(C(=O)NN=C2c3ccccc3-c3ccccc32)c1-c1ccccc1` [D13.001], the IC50 was determined as 10.1 µM.

As to `COCC(=O)CC(N)c1ccc(C)cc1` (stereo not drawn) [D13.002], the IC50 is 23.3 µM.

In the case of `CC(N)C(CC(=O)O)c1ccccc1` (stereo not drawn) [D13.003], the IC50 worked out at 38 µM.

Regarding `CCOC(=O)CC(N)c1ccccc1Cl` (stereo not drawn) [D13.005], the IC50 came out at 72.2 µM.

For `CCC(O)(CC)C(=O)NNc1ccccc1C` [D14.003], the IC50 came out at 5.7 µM.

For `O=C(NNC1=C(Cl)C(=O)C(Cl)(Cl)C1=O)c1ccccc1` [D14.004], the IC50 was determined as 26.2 µM.

On to `CCC(O)(CC)C(=O)NNc1ccc(C)cc1` [D14.005], for which the IC50 turned out to be 26.7 µM.
